Data on 69 compounds can be found in ChEMBL document CHEMBL3507680, “University of Dundee, Gates Library screen for HepG2 cell viability”.

The nature of this series: Human HepG2 cell viability assay in 384 well format. The class given is toxicity, cell-based. More on the design: dose 125 nL, time 70.5 hour; concentration not given beside the values. The conditions noted are these: HepG2 cells, read-out: Inhibition.
Regarding `COc1ccc(S(=O)(=O)N2CCOC(Cn3ccnc3)C2)cc1` (centres undefined), the cytotoxicity at 70.5 h is -8.46%.

Take `CC(=O)c1ccc(S(=O)(=O)N2CCOC(Cn3ccnc3)C2)cc1` (centres undefined): the cytotoxicity at 70.5 h is -7.46%.

As to `O=C(C1CC1)N1CC[C@H](O)[C@@H]1Cc1ccccc1`, the cytotoxicity at 70.5 h is -3.79%.

For the compound `CC(C)C(=O)N1CCC2(CCCN(CCOc3ccccc3)C2)C1` (centres undefined), the cytotoxicity at 70.5 h was -8.26%.

`c1ccc(N2CCCC3(CCN(Cc4nccs4)C3)C2)nc1` (centres undefined): the cytotoxicity at 70.5 h came out at 6.32%.

For `CN(C)C(=O)CC1CC2(CCN(C(=O)N(C)C)CC2)Oc2ccccc21` (centres undefined), the cytotoxicity at 70.5 h is -11.4%.

Turning to `CNC(=O)[C@@]12CCC3(CCN(C(C)=O)CC3)[C@@H]1CN(S(C)(=O)=O)C2`, the cytotoxicity at 70.5 h was -4.49%.

Consider `CNC(=O)c1cc2c(nc1NCC(C)C)CCN(S(=O)(=O)C1CC1)CC2`, for which the cytotoxicity at 70.5 h is -6.3%.

`COCC1c2nnn(CC3CC3)c2CCN1C(=O)c1cccc(F)c1` (centres undefined): the cytotoxicity at 70.5 h was -6.77%.

On to `CCOCC1CN(S(C)(=O)=O)Cc2ncn(CC3CC3)c21` (centres undefined), for which the cytotoxicity at 70.5 h came to 3.76%.

Consider `CCS(=O)(=O)N1CC[C@]2(C[C@@H](OCC3CC3)CO2)C1`, for which the cytotoxicity at 70.5 h is -8.16%.

In the case of `O=C(NCc1cnc2n1CCN(CC1CC1)CC2)C1CCC1`, the cytotoxicity at 70.5 h was -8.49%.

For `CCc1ccccc1NC(=O)N1CCn2cnc(COC)c2C1`, the cytotoxicity at 70.5 h is -7.61%.

Turning to `CCc1noc(CCC(=O)N2CCC(c3ccn[nH]3)C2)n1` (centres undefined), the cytotoxicity at 70.5 h was 17.8%.

With `Cc1nc(CN2CCCC(c3nccs3)C2)cs1` (centres undefined), the cytotoxicity at 70.5 h is -0.693%.

`CNc1cccc(CC2COCCN(C(=O)c3cnn(C)c3)C2)n1` (centres undefined): the cytotoxicity at 70.5 h was -0.46%.

As for `CC(=O)N1CCC1c1cc(NC2CCOCC2)nc(C)n1` (centres undefined), the cytotoxicity at 70.5 h was -0.759%.

On to `c1cncc(CN2CCC(c3ccnc4nccn34)C2)c1` (centres undefined), for which the cytotoxicity at 70.5 h is -1.1%.

As to `CC(C)(C)c1cc(C(=O)N2CCOC(c3cnccn3)C2)[nH]n1` (centres undefined), the cytotoxicity at 70.5 h was found to be 0.63%.

On to `CC(=O)N1CCC(C)(c2cc(C(=O)NCC3CC3)nc(C)n2)CC1`, for which the cytotoxicity at 70.5 h was -1.84%.

For the compound `CCCNC(=O)C1(Cc2cc(-c3ccccc3)no2)CCN(C(C)=O)C1` (centres undefined), the cytotoxicity at 70.5 h came to 3.68%.

For `CC(=O)NC1CCc2ccc(S(=O)(=O)NCc3ncccc3C)cc21` (centres undefined), the cytotoxicity at 70.5 h is 39.1%.

Consider `Cc1nc(Nc2nccs2)cc(C2CN(C(C)C)C2)n1`, for which the cytotoxicity at 70.5 h was -5.94%.

For `Cc1nnc(N2CCOC(C)(C(=O)N(C)C)C2)c2ccccc12` (centres undefined), the cytotoxicity at 70.5 h was -8.96%.

Turning to `O=C(O)[C@H]1OCC(=O)N(Cc2cccc(Cl)c2)[C@@H]1c1ccccc1`, the cytotoxicity at 70.5 h was -6.12%.

As to `Cc1cc(C)n(-c2nc(C(=O)NCCN3CCC(C)CC3)cs2)n1`, the cytotoxicity at 70.5 h was -5.84%.

As to `O=C(NCC1CCCO1)c1cc(-c2cccnc2)c2cnccc2n1` (centres undefined), the cytotoxicity at 70.5 h was -3.09%.

On to `O=C(O)[C@H]1OCC(=O)N(Cc2cccc(F)c2)[C@@H]1c1ccc(Cl)cc1`, for which the cytotoxicity at 70.5 h is -9.16%.

With `CS(=O)(=O)N1CC(c2ccnc(Nc3ccccn3)n2)C1`, the cytotoxicity at 70.5 h was -3.95%.

As for `NC(=O)C1CN(C(=O)c2ccc(F)cc2)CCN1CCc1ccccc1` (centres undefined), the cytotoxicity at 70.5 h is -4.6%.

On to `CCc1nc(C)cc(N2CCN(C(=O)[C@@H]3C[C@@H]4C=C[C@H]3C4)CC2)n1`, for which the cytotoxicity at 70.5 h was -7.28%.

`Cn1ccnc1-c1nc(NC2CCCC2)ncc1-c1cccc(F)c1`: the cytotoxicity at 70.5 h worked out at 0.205%.

As to `CNC(=O)C1CN(c2ncccn2)CCN1Cc1ccccc1` (centres undefined), the cytotoxicity at 70.5 h was -3.64%.

For `CNC(=O)C1CN(C)CCN1c1nc(C)cc(C)n1` (centres undefined), the cytotoxicity at 70.5 h was found to be 14.1%.

As to `CN(C)c1nccc(C2CCCCN2Cc2cnn3cccnc23)n1` (centres undefined), the cytotoxicity at 70.5 h was -7.45%.

`O=c1[nH]cc(N2CCOCC2)c(=O)[nH]1`: the cytotoxicity at 70.5 h was -0.0513%.

Take `Cc1nc(N2CCOCC2)sc1C(=O)NCC(C)(C)N1CCCCC1`: the cytotoxicity at 70.5 h is -2%.

As to `CCN(CC)C1CCN(C(=O)c2cc(-n3cccn3)ccc2Cl)CC1`, the cytotoxicity at 70.5 h is -0.746%.

In the case of `CC(C)(C)C(=O)N1CCCc2c(cnn2-c2ccccc2)C1`, the cytotoxicity at 70.5 h was determined as 1.62%.

Regarding `O=S(=O)(c1ccccc1)N1CCOC(Cn2ccnc2)C1` (centres undefined), the cytotoxicity at 70.5 h was -6.05%.

Regarding `OC1(CN2CCC(Cc3ncccn3)CC2)CCCCC1`, the cytotoxicity at 70.5 h is -5.56%.

On to `CC(C)N1CCN(C)CC(Cc2cc(N(C)C)ncn2)C1` (centres undefined), for which the cytotoxicity at 70.5 h is -3.36%.

As for `Cn1nc(C2CCN(C(=O)c3cnccn3)C2)cc1CCO` (centres undefined), the cytotoxicity at 70.5 h was -2.35%.

In the case of `Cc1c[nH]nc1C1CCCN1Cc1ccncc1` (centres undefined), the cytotoxicity at 70.5 h is -4.73%.

On to `COc1cccc(CN2CCCCC2c2n[nH]cc2-c2cc(C)no2)c1` (centres undefined), for which the cytotoxicity at 70.5 h is -3.89%.

For the compound `Cc1cc(-c2nccs2)nc(C2CCN(Cc3ccc(F)cc3)CC2)n1`, the cytotoxicity at 70.5 h was -2%.

On to `CCn1cc(-c2cncn2CCc2ccc3c(c2)OCCO3)cn1`, for which the cytotoxicity at 70.5 h amounted to 19.5%.

Regarding `Cn1cc(CN(Cc2ccccc2)Cc2ccccn2)cn1`, the cytotoxicity at 70.5 h amounted to 18%.

As for `c1cnc(N2CCC3(CC2)CN(CC2CC2)c2ccccc23)nc1`, the cytotoxicity at 70.5 h came out at 12.1%.

In the case of `O=C1COC2(CCN(C(=O)c3ccco3)CC2)CN1Cc1cccnc1`, the cytotoxicity at 70.5 h was -8.01%.

For the compound `Cc1noc(C)c1CN1CCCC2(CCN(C(=O)NC3CC3)C2)C1` (centres undefined), the cytotoxicity at 70.5 h came out at 1.02%.

On to `CN(C)C(=O)CN1C(=O)CCC12CCN(Cc1cccn1C)CC2`, for which the cytotoxicity at 70.5 h was determined as 0.746%.

Consider `C[C@@H]1C(=O)NC[C@H]2CN(Cc3ccsc3)C[C@H]21`, for which the cytotoxicity at 70.5 h is -2.8%.

As to `C[C@@H]1C(=O)NC[C@H]2CN(CCc3ccccc3)C[C@H]21`, the cytotoxicity at 70.5 h is -0.303%.

As to `O=C1COC2(CCN(C(=O)c3ccco3)CC2)CN1Cc1ccccn1`, the cytotoxicity at 70.5 h is -1.65%.

In the case of `O=C(CC1CC1)N1C[C@@H]2CCN(c3cnccn3)C[C@@H]2C1`, the cytotoxicity at 70.5 h came to 4.03%.

Take `CN1CC2(CCN(Cc3ccoc3)CC2)COc2ccccc2S1(=O)=O`: the cytotoxicity at 70.5 h is -12.1%.

`CNC(=O)c1ccc2c(c1)C1(CCN(CC(C)C)CC1)C(=O)N2`: the cytotoxicity at 70.5 h was -10.5%.

On to `CC(C)CN1CCC2(CC1)C(=O)Nc1ccc(C(=O)N(C)C)cc12`, for which the cytotoxicity at 70.5 h was -10.1%.

Turning to `Cc1noc(C)c1CN1C[C@H](OCC2CC2)[C@H]2OCCC[C@H]21`, the cytotoxicity at 70.5 h was -9.93%.

On to `O=C([C@@H]1CC[C@@H]2[C@@H](CCN2Cc2ccoc2)O1)N1CCCC1`, for which the cytotoxicity at 70.5 h is -11.4%.

With `CC(C)c1ccc(CN2CCC3(CCCN(c4nncs4)C3)C2)cc1` (centres undefined), the cytotoxicity at 70.5 h was -4.12%.

In the case of `CC(=O)N1CCN(Cc2ccccn2)CC2(CC(=O)N(C)C2)C1` (centres undefined), the cytotoxicity at 70.5 h worked out at 0.971%.

As for `CNC(=O)[C@@H]1C[C@H]2CN(Cc3nccs3)C[C@H]2N1C`, the cytotoxicity at 70.5 h was 6.13%.

On to `CN(C)CCOCC1CN(CC2CCOCC2)Cc2nnn(C)c21` (centres undefined), for which the cytotoxicity at 70.5 h was -6.51%.

For `COCCN1CCc2cc(C(=O)N(C)C)c(NC(C)C)nc2CC1`, the cytotoxicity at 70.5 h was -8.98%.

For the compound `Fc1cccnc1OC[C@@]12CCO[C@@H]1CCN(CC1CCOCC1)C2`, the cytotoxicity at 70.5 h was -9.65%.

As to `COCCO[C@H]1CCN(Cc2cccs2)[C@H]1Cc1cccnc1`, the cytotoxicity at 70.5 h was -8.35%.

As to `CN(C)CCN1CCO[C@H]2CN(Cc3cnn(C)c3)C[C@H]21`, the cytotoxicity at 70.5 h was -7.82%.
